Active and inactive are the calls of the source. The calls are words filed in the database; no cut-off is given here.
Legend:
[1] = biological target: Cyclin-dependent kinase 2 (Homo sapiens) (UniProt P24941); assay: Inhibition of CDK2 Lys2 labeling site harbouring VLHRDLKPQNLLINTEGAIK in human Huh-7 cell lysate at 1 uM by KiNativ Profiling analysis relative to control; format: subcellular
[2] = Inhibition of KHS1 Lys1 labeling site in human Huh-7 cell lysate at 1 uM by KiNativ Profiling analysis relative to control; conditions: condition cancer
[3] = biological target: Serine/threonine-protein kinase Nek7 (Homo sapiens) (UniProt Q8TDX7); assay: Inhibition of NEK7 Lys2 labeling site harbouring VMHRDIKPANVFITATGVVK in human Huh-7 cell lysate at 1 uM by KiNativ Profiling analysis relative to control; format: subcellular
[4] = biological target: Tyrosine-protein kinase JAK2 (Homo sapiens) (UniProt O60674); assay: Inhibition of JAK2 JH1 catalytic domain (unknown origin) at 10 uM by Ambit Kinomescan binding assay relative to control
[5] = biological target: Mitogen-activated protein kinase 10 (Homo sapiens, UniProt P53779); assay: Inhibition of JNK3 (unknown origin) at 10 uM by Ambit Kinomescan binding assay relative to control
[6] = biological target: Serine/threonine-protein kinase MARK2 (Homo sapiens) (UniProt Q7KZI7); assay: Inhibition of MARK2 (unknown origin) at 10 uM by Ambit Kinomescan binding assay
[7] = biological target: T1, Mitogen-activated protein kinase kinase kinase 6 (Homo sapiens) (UniProt O95382); assay: Inhibition of MAP3K6 Lys1 labeling site harbouring IAIKEIPERDSR in human A-375 cells at 5 uM by KiNativ Profiling analysis relative to control; format: cell-based
T1 sequence (whole entry): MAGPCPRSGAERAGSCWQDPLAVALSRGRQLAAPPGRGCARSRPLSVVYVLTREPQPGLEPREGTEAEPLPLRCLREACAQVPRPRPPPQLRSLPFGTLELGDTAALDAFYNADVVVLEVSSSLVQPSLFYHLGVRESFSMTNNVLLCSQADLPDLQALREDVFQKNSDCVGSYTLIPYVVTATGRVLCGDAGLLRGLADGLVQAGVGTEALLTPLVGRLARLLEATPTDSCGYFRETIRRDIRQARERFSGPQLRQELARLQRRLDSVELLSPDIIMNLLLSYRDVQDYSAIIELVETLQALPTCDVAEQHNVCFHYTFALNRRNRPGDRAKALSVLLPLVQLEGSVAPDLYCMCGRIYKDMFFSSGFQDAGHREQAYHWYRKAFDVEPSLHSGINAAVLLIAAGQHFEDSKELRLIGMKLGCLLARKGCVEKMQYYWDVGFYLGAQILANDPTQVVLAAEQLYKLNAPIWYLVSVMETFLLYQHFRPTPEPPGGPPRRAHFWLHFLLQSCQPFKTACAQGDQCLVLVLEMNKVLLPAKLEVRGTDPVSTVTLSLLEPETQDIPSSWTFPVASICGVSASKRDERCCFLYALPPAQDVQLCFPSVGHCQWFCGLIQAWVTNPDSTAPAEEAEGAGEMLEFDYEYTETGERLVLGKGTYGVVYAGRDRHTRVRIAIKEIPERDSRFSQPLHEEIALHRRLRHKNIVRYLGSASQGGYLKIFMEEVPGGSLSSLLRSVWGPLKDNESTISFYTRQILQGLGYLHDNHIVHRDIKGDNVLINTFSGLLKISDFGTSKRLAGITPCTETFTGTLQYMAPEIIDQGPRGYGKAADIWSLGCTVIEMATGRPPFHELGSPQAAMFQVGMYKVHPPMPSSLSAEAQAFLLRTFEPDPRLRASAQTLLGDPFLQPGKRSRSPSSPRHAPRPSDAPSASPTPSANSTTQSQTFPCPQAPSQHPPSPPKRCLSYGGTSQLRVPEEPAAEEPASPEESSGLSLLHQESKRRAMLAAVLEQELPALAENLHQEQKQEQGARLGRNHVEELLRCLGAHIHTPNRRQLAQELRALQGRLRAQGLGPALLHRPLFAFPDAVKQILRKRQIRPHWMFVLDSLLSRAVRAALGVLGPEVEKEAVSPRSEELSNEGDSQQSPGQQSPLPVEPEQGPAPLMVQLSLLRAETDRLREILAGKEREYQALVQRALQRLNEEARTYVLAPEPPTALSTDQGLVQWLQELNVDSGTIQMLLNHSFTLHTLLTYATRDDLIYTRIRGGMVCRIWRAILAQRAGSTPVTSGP

[8] = biological target: Microtubule-associated serine/threonine-protein kinase 2 (Homo sapiens) (UniProt Q6P0Q8); assay: Inhibition of MAST2 Lys2 labeling site in human A-375 cells at 0.5 uM by KiNativ Profiling analysis relative to control; format: cell-based
[9] = biological target: eIF-2-alpha kinase GCN2 (Homo sapiens) (UniProt Q9P2K8); assay: Inhibition of GCN2 K2 labeling site in human Huh-7 cells at 10 uM by KiNativ Profiling analysis relative to control; format: cell-based
[10] = biological target: Serine/threonine-protein kinase B-raf (Homo sapiens, UniProt P15056); assay: Inhibition of BRAF K2 labeling site in human Huh-7 cells at 1 uM by KiNativ Profiling analysis relative to control; format: cell-based
[11] = biological target: Ankyrin repeat and protein kinase domain-containing protein 1 (Homo sapiens) (UniProt Q8NFD2); assay: Inhibition of ANKK1 (unknown origin) at 1 uM by Ambit Kinomescan binding assay relative to control
[12] = biological target: Maternal embryonic leucine zipper kinase (Homo sapiens) (UniProt Q14680); assay: Inhibition of MELK Lys2 labeling site in human A-375 cells at 0.5 uM by KiNativ Profiling analysis relative to control; format: cell-based
[13] = biological target: T2, Scaffold protein ILK (Homo sapiens) (UniProt Q13418); assay: Inhibition of ILK Lys1 labeling site in human A-375 cells at 0.05 uM by KiNativ Profiling analysis relative to control; format: cell-based
T2 sequence (whole entry): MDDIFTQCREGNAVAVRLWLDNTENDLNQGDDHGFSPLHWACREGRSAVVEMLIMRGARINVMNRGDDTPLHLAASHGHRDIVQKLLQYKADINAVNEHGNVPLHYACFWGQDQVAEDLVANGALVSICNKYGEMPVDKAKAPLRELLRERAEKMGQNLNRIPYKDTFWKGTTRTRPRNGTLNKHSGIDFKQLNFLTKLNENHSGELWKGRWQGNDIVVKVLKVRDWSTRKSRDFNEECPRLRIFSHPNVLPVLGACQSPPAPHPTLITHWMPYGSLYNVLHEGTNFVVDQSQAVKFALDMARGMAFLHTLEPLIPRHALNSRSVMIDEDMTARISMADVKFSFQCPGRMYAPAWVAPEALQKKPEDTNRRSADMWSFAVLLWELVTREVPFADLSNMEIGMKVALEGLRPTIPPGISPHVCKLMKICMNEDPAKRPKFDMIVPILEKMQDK

[14] = system: Leucine-rich repeat serine/threonine-protein kinase 2 (Homo sapiens), Q5S007 [G2019S]; assay: Inhibition of LRRK2 G2019S mutant (unknown origin) at 1 uM by Ambit Kinomescan binding assay relative to control; values are per cent of control

Chain of Maternal embryonic leucine zipper kinase (Homo sapiens) (Q14680 whole entry, looked up): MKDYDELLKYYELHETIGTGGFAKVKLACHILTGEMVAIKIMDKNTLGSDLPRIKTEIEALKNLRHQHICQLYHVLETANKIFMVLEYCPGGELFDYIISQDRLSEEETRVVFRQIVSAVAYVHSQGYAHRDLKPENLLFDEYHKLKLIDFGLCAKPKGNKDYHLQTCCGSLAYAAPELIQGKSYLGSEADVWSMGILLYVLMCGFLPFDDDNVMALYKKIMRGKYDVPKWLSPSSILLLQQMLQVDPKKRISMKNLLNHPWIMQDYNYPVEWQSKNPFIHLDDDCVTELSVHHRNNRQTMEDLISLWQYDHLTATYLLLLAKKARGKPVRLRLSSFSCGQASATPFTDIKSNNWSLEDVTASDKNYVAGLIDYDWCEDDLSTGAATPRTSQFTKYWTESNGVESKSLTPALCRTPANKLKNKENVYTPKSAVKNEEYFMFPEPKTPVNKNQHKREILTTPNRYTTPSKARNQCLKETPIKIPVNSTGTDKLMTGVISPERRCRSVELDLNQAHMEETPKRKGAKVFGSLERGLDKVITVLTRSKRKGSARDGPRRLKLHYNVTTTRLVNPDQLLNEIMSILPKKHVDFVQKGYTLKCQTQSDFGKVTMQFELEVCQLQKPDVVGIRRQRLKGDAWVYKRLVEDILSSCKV
Chain of Microtubule-associated serine/threonine-protein kinase 2 (Homo sapiens) (Q6P0Q8 whole entry): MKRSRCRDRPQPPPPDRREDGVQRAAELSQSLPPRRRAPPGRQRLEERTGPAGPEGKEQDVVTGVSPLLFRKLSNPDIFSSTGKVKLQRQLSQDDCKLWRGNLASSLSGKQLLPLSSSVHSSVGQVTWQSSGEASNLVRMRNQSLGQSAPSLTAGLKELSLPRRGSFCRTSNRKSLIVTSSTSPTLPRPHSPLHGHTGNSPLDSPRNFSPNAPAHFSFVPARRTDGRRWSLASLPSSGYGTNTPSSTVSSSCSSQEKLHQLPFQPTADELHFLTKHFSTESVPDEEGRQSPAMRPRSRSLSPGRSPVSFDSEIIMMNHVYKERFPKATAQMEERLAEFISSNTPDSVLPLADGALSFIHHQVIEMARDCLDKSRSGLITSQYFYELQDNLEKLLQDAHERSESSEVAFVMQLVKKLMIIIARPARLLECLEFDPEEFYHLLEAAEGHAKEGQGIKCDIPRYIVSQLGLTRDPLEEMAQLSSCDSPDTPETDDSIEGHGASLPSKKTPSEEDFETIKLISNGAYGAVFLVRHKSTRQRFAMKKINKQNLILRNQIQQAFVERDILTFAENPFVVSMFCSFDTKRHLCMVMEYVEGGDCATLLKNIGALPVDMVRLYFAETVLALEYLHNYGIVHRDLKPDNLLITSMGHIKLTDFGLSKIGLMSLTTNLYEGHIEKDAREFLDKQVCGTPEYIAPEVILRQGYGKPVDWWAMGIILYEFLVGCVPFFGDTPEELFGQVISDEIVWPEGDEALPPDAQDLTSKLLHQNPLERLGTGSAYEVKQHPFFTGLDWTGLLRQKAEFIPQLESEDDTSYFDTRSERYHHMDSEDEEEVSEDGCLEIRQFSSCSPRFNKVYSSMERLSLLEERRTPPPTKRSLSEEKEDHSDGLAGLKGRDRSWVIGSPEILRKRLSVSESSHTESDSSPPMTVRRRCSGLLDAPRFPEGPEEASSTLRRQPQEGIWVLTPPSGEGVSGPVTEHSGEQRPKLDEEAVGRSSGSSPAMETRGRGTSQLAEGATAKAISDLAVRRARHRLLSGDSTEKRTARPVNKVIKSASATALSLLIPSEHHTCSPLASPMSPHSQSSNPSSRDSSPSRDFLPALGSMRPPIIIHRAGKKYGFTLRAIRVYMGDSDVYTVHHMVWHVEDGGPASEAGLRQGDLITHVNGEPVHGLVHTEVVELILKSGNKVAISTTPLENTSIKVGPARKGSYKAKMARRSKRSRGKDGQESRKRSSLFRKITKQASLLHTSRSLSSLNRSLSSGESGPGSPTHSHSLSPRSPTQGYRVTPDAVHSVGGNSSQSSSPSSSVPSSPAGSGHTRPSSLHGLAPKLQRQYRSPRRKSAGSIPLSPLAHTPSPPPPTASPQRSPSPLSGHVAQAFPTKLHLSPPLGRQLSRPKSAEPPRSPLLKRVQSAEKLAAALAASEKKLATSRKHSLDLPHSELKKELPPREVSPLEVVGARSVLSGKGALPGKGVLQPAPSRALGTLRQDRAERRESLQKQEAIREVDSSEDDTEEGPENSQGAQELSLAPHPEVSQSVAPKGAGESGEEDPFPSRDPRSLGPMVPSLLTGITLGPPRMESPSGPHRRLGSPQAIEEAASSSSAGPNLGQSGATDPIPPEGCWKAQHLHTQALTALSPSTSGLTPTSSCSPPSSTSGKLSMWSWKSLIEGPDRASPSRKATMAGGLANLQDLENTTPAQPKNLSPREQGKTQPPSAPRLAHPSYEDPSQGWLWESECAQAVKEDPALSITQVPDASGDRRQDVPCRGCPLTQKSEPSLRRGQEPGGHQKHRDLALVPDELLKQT
Chain of Tyrosine-protein kinase JAK2 (Homo sapiens) (O60674 whole entry, the tested form may be a part): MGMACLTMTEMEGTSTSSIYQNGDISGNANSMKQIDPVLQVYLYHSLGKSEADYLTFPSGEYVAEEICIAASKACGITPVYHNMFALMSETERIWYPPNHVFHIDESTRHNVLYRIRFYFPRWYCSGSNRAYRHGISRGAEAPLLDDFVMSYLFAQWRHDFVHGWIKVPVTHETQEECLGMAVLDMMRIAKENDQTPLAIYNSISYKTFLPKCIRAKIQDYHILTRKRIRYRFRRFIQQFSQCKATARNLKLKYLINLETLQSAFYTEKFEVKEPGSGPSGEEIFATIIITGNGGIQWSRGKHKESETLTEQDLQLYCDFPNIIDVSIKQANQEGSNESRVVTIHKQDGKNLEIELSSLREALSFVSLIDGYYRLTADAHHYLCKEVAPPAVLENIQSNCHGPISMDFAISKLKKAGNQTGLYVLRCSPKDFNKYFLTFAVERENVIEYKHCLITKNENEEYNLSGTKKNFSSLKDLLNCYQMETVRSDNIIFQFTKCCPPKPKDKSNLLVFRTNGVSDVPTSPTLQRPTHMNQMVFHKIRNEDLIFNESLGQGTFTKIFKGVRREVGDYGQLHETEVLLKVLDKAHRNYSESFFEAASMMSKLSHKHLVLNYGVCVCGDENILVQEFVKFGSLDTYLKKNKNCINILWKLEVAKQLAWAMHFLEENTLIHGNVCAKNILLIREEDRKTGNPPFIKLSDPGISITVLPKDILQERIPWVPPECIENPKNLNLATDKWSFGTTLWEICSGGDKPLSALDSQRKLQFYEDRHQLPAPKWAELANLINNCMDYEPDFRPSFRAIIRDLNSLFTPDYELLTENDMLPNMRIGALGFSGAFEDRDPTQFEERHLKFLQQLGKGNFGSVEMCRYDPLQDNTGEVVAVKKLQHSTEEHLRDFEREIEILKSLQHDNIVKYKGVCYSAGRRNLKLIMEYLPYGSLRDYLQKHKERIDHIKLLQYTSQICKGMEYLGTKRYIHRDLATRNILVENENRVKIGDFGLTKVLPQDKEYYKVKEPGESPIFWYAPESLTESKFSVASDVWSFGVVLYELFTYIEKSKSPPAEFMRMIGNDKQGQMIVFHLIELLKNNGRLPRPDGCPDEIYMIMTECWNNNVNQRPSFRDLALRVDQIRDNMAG
Chain of Serine/threonine-protein kinase B-raf (P15056 whole entry, the tested form may be a part): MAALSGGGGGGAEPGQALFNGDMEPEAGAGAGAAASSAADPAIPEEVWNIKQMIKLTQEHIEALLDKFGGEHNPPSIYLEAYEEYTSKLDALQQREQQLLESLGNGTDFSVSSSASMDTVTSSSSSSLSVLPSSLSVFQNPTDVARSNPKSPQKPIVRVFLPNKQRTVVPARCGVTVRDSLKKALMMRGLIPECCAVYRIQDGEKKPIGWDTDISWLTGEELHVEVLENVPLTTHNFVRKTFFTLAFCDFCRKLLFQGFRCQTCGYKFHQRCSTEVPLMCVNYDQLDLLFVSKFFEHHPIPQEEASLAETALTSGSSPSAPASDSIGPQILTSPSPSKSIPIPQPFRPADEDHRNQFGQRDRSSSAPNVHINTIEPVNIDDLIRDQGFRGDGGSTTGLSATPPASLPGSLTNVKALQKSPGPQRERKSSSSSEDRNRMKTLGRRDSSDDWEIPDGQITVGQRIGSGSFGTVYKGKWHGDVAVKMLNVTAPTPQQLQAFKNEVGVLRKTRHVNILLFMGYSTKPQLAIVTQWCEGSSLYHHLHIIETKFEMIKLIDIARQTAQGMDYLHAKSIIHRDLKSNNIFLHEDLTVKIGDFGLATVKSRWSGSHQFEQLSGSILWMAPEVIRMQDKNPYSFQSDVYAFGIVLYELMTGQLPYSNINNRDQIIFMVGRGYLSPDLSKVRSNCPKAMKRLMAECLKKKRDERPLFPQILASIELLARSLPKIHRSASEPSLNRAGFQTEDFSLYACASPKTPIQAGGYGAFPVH
Chain of Mitogen-activated protein kinase 10 (P53779 whole entry): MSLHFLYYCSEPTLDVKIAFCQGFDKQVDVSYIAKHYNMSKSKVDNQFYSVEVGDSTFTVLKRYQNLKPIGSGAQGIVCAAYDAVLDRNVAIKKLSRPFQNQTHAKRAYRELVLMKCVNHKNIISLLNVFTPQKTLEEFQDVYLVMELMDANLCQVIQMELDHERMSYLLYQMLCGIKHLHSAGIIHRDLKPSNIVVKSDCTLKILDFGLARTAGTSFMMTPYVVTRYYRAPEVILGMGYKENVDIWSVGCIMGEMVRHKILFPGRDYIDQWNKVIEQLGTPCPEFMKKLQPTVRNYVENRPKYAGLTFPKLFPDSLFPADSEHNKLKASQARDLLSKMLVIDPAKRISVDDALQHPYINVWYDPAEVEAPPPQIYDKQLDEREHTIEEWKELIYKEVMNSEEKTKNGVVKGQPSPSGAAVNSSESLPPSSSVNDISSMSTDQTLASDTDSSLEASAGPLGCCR

## CNc1cc(Oc2cc(C(=O)Nc3cc(N4CCN(C)CC4)cc(C(F)(F)F)c3)ccc2C)ncn1
[1]
  inhibition: 16.1%
[2]
  inhibition at 1 µM: -10.2%
[3]
  inhibition: 19.4%

## CCN1CCN(Cc2ccc(NC(=O)c3ccc(C)c(Oc4ccnc5[nH]ccc45)c3)cc2C(F)(F)F)CC1
[4]
  inhibition: 11%
[5]
  inhibition: 12%
[6]
  inhibition: inactive
[7]
  inhibition: -3.2%
[8]
  inhibition: 16.1%
[9]
  inhibition: 14.7%
[10]
  inhibition: 1.7%

## CCN1CCN(Cc2ccc(NC(=O)c3ccc(C)c(/C=C/c4cnc5[nH]ccc5c4OC)c3)cc2C(F)(F)F)CC1
[11]
  inhibition: 6%
[12]
  inhibition: 1.9%
[13]
  inhibition: 3.9%
[14]
  residual activity: 71%

From ChEMBL document CHEMBL5696442, “Discovery of type II inhibitors of TGFβ-activated kinase 1 (TAK1) and mitogen-activated protein kinase kinase kinase kinase 2 (MAP4K2)” (J Med Chem, 2015)
